We go through 23 molecules from EPA's ToxValDB 9.5.

Series [1] relates to Rattus norvegicus. As to conditions: oral.
For series [2], the system named is Rattus norvegicus. To be noted: for NOAEL (% diet): short-term, duration: 29 days.
The mark [3] stands for this setting: reproduction developmental, duration: 10 days, oral, gavage, F, Sprague-Dawley.
[4] abbreviates: subchronic, duration: 13 weeks, oral, diet.
The mark [5] stands for this setting: subchronic, gavage, M, Sprague-Dawley, Clinical Observation: Salivation Locomotor activity decrease, BradypneaIncomplete eyelid opening + Body Weight Changes: decrease + Blood ….
Where [6] appears, read: acute, oral, gavage, Sprague-Dawley.
The mark [7] stands for this setting: subchronic, gavage, M, Sprague-Dawley, Body Weight Changes: Body weight gain decrease + Food Consumption: Food consumption decrease + Blood Chemistry: ALP decrease, TG decrease, ….
[8] abbreviates: reproduction developmental, duration: 32 days, oral, gavage, Sprague-Dawley, generation: F0.
Setting [9] is: reproduction developmental, inhalation, Wistar.

Turning to `O=C(O)C1CCC(c2ccc(Cl)cc2)CC1` (stereo unspecified), the NOEL in the series with Rattus norvegicus [1] (short-term, duration: 28 days, gavage, M/F, Deaths + Clinical Observation: Abnormal gait Lethargy Piloerection Ptosis + Blood Chemistry: GPT increase, ALP increase, TP increase, ALB …) is less than 12 mg/kg-day.

In turn, `O=C1Oc2cc3c(cc2=C1c1ccccc1)OC(=O)C=3c1ccc(OCC2CCCO2)cc1` (stereo unspecified) returned an NOEL with Rattus norvegicus [1] (short-term, duration: 28 days, gavage) of 1000 mg/kg-day.

With `CC(C)(C)c1cc(N=C(NO)c2ccc([N+](=O)[O-])cc2)n[nH]1`, the NOEL with Rattus norvegicus [1] (short-term, duration: 28 days, gavage, M/F, Body Weight Changes: Weight gain decrease + Hematology: RET increase, RBC decrease, HGB decrease, WBC increase, MCV increase, MCH increase, …) was less than 4 mg/kg-day.

In the case of `CC(C)CCCCCOC(=O)CCc1cc(C(C)(C)C)c(O)c(C(C)(C)C)c1`, in the series on Rattus norvegicus [1] (short-term, duration: 28 days, gavage, M/F, Hematology: APTT increase + Organ Weight: Liver increase + Histopathology: Liver - Hypertrophy, centrilobular, hepatocyte Thyroid - …), the NOEL is less than 5 mg/kg-day.

As to `CC(=O)CC(=O)Nc1ccc(-c2ccc(NC(=O)CC(C)=O)c(C)c2)cc1C`, the NOEL with Rattus norvegicus [1] (short-term, duration: 28 days, gavage, M/F, Crl:CD(SD), Body Weight Changes: decrease + Food Consumption: decrease + Water Consumption: decrease + Urinalysis: Volume decrease + Blood Chemistry: …) was 8 mg/kg-day.

In the series with Rattus norvegicus [2] (acute, oral, gavage), `Cc1cc(S(=O)(=O)[O-])c(N=Nc2c([O-])c(C(=O)O)cc3ccccc23)cc1Cl.[Ba+2]` had an LD50 of no less than 5000 mg/kg.

With `CC1COCc2cc3c(cc21)C(C)(C)C(C)C3(C)C` (stereo unspecified), the LOAEL in the series with Rattus norvegicus [2] (setting [3]) was 150 mg/kg-day; in the series on Rattus norvegicus [2] (setting [4]), 300 mg/kg-day. The no-observed-adverse-effect level (NOAEL) with Rattus norvegicus [2] (setting [3]) stood at 50 mg/kg-day; in the series with Rattus norvegicus [2] (reproduction developmental, duration: 10 days, oral, gavage, Sprague-Dawley, generation: F1) it was 150 mg/kg-day; with Rattus norvegicus [2] (reproduction developmental, oral, gavage), 20 mg/kg-day; in the series with Rattus norvegicus [2] (setting [4]) it was 150 mg/kg-day.

On to `CCCCCCCCCCCCc1ccc(S(=O)(=O)[O-])cc1.COc1ccc(C[N+](C)(C)c2ccccc2)cc1`, for which, in the series with Rattus norvegicus [1] (short-term, duration: 28 days, gavage, M/F, Clinical Observation: Salivation + Urinalysis: Occult blood + Blood Chemistry: GPT increase, T-CHO increase, K increase, GOT increase, TG …), the NOEL came to 25 mg/kg-day.

In the case of `CCCCCCC[CH2][Sn]([S]CC(=O)OCCCCCC(C)C)([S]CC(=O)OCCCCCC(C)C)[S]CC(=O)OCCCCCC(C)C`, the NOAEL with Rattus norvegicus [1] (subchronic, duration: 13 weeks, diet, M, CIVO, Wistar-derived, Relative Organ Weight: Kidney increase, Liver decrease + Histopathology: Kidney-Increased granularity, tubular epithelial cells) was 28.8 mg/kg-day; in the series with Rattus norvegicus [1] (subchronic, duration: 13 weeks, drinking water, M/F, CIVO, Wistar-derived, Urinalysis: Epithelial cell increase, Crystals increase + Hematology: HGB decrease + Blood Chemistry: BUN increase + Relative Organ Weight: …) it was less than 45.6 mg/kg-day.

For `CCCCn1c(O)c(C#N)c(C)c(N=Nc2ccc([N+](=O)[O-])cc2Cl)c1=O`, the NOEL in the series with Rattus norvegicus [1] (short-term, duration: 28 days, gavage, M/F, Blood Chemistry: GOT increase, T-bil increase + Organ Weight: Liver increase) turned out to be 250 mg/kg-day.

On to `CCn1cc(C(=O)[O-])c(=O)c2cc3occc3nc21.[Na+]`, for which the NOEL in the series on Rattus norvegicus [1] (chronic, duration: 26 weeks, gavage, M/F, Clinical Observation: Salivation + Body Weight Changes: Gain decrease + Hematology: WBC decrease + Blood Chemistry: A/G increase + Organ …) was determined as 10 mg/kg-day.

With `COc1cc(N=Nc2ccc3cc(S(=O)(=O)[O-])c(N=Nc4cc(OC)c(N=Nc5ccc(N)cc5S(=O)(=O)[O-])cc4OC)c(O)c3c2)c(OC)cc1N.[Na+].[Na+]`, the NOEL in the series with Rattus norvegicus [1] (short-term, duration: 28 days, gavage, M/F, Body Weight Changes: Body weight gain decrease + Food Consumption: decrease + Hematology: GOT increase, GPT increase, TG decrease + Organ …) was 2 mg/kg-day.

In the case of `COc1cc(S(=O)(=O)CCOS(=O)(=O)O)c(OC)cc1N`, in the series on Rattus norvegicus [1] (short-term, duration: 28 days, gavage, F, Blood Chemistry: Na increase + Relative Organ Weight: Liver increase, Kidney increase), the NOEL was 30 mg/kg-day.

Regarding `COCc1ccc(COC)cc1` [1,4-Bis(methoxymethyl)benzene], in the series on Rattus norvegicus [1] (setting [5]), the NOAEL was 50 mg/kg-day and the NOEL was determined as 50 mg/kg-day.

Regarding `O=C(O)C1CCC(C(=O)O)CC1` (stereo unspecified) [1,4-Cyclohexanedicarboxylic acid], in the series with Rattus norvegicus [2] (setting [6]), the LD50 was determined as 2080 mg/kg. In addition, the “NOAEL (% diet)” value in the series with Rattus norvegicus [2] (oral, diet, F, Sprague-Dawley) came to 1; with Rattus norvegicus [2] (oral, diet, M, Sprague-Dawley) it was 1. Moreover, the no observed adverse effect level (NOAEL) with Rattus norvegicus [2] (subchronic, duration: 90 days, oral, gavage, F, Wistar) came out at 300 mg/kg-day; in the series on Rattus norvegicus [2] (subchronic, duration: 90 days, oral, gavage, M, Wistar), 300 mg/kg-day.

As for `C1CN2CCN1CC2` [1,4-Diazabicyclo[2.2.2]octane], in the series on Rattus norvegicus [1] (short-term, duration: 29 days, gavage, M, Sprague-Dawley, Body Weight Changes: Weight gain decrease + Food Consumption: decrease + Histopathology: Kidney: Inflammation, chronic Kidney: Proliferation), the NOAEL is 100 mg/kg-day.

In the case of `C1=CCCC=CCCC=CCC1` [1,5,9-Cyclododecatriene], the NOEL in the series with Rattus norvegicus [1] (subchronic, duration: 42 days, gavage, M, CD(SD), Clinical Observation: Salivation + Body Weight Changes: Weight gain decrease + Hematology: PT increase, APTT increase, Fibrinogen increase…) turned out to be 12 mg/kg-day. Moreover, the NOAEL in the series with Rattus norvegicus [1] (subchronic, duration: 55 days, gavage, M, Sprague-Dawley, Body Weight Changes: Weight gain decrease + Food Consumption: increase + Urinalysis: Vol increase + Blood Chemistry: TG decrease + Absolute …) worked out at 30 mg/kg-day.

On to `O=S(=O)([O-])c1cccc2c(S(=O)(=O)[O-])cccc12.[Na+].[Na+]` [1,5-Naphthalenedisulfonic acid, disodium salt], for which the NOEL in the series with Rattus norvegicus [1] (subchronic, gavage, M, Sprague-Dawley, Clinical Observation: Soft stool Diarrhea + Necropsy: Stomach/Forestomach-Elevation of limiting ridge Cecum-Enlargement + Histopathology: …) is 40 mg/kg-day.

For `C(CCCOCC1CO1)CCOCC1CO1` (stereo unspecified) [1,6-Hexanediol diglycidyl ether], in the series with Rattus norvegicus [1] (setting [7]), the NOAEL worked out at 30 mg/kg-day and the NOEL came to 30 mg/kg-day.

As for `ClCCc1ccccc1` [1-Chloro-2-phenylethane], the NOEL in the series with Rattus norvegicus [1] (short-term, duration: 28 days, gavage, M/F, Sprague-Dawley, Food Consumption: decrease + Urinalysis: Volume increase, Prot decrease + Hematology: RBC increase, MCV decrease, MCH decrease + Absolute …) was determined as 60 mg/kg-day.

The molecule `CCCCCCCCCCCCCl` [1-Chlorododecane] displayed an LD50 in the series with Rattus norvegicus [2] (setting [6]) greater than 2000 mg/kg. Besides, in the series on Rattus norvegicus [2] (setting [8]), the LOAEL turned out to be 300 mg/kg-day and the NOAEL is 100 mg/kg-day. The molecule also registered an LOAEL in the series on Rattus norvegicus [2] (reproduction developmental, duration: 32 days, oral, gavage, Sprague-Dawley, generation: F1) of 1000 mg/kg-day.

For `CC=CC` [2-Butene], in the series with Rattus norvegicus [2] (acute, inhalation, Wistar), the LC50 was greater than 22900 mg/m3. Further, in the series with Rattus norvegicus [2] (setting [9]), the LOAEL is 11500 mg/m3 and the NOAEL was 5740 mg/m3.

In turn, `CCCCCCCCCCCCCCCCCC(=O)OCCO` [2-Hydroxyethyl octadecanoate] returned a 50% lethal dose (LD50) in the series on Rattus norvegicus [2] (acute, oral, gavage, Wistar) greater than 5000 mg/kg.

The LD50 is the dose at which mortality reaches 50%. Read a high LD50 as a less toxic substance. A word on the LOAEL: it is the lowest dose or exposure tested at which an adverse effect was seen. In general, NOAEL refers to the highest tested level that showed no adverse finding.
